Laboratory results: patent US20080039455A1, “PYRAZOLOPYRIMIDINES AND SALTS THEREOF, PHARMACEUTICAL COMPOSITIONS COMPRISING SAME, METHODS OF PREPARING SAME AND USES OF SAME” (priority 2006, published 2008)

Biological target: T1, human recombinant ALK1 (GST fused to ALK1 intracellular domain [His142-Gln503]) (Homo sapiens, UniProt P37023)
T1 construct: GST fused to ALK1 intracellular domain [His142-Gln503]; made in house
T1 sequence (P37023 142-503): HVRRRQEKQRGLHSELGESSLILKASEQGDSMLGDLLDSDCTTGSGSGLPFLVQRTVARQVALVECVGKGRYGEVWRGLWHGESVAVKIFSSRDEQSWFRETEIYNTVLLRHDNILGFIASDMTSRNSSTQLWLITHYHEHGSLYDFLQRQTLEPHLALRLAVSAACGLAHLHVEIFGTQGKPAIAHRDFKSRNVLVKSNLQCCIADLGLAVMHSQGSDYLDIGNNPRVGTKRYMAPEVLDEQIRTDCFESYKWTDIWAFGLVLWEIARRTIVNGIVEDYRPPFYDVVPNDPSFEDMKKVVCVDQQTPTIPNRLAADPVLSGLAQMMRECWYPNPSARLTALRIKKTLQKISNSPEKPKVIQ
Assay: ALK1-Kinase Flashplate-Assay
Assay type: biochemical
Settings: 0.5 μM ATP, biotinylated α-casein substrate; read-out: Assay 1 (ALK1-Kinase Flashplate-Assay IC50 class)
Text: Biological Assay 1: ALK1-Kinase Flashplate-Assay
ALK1 phosphorylates serine/threonine residues of the biotinylated substrate bovine α-casein in the presence of [γ-^33P]ATP. Detection of the radiolabeled phosphorylated product is achieved by binding to streptavidine-coated Flashplates. The biotin moieties of biotinylated casein bind with high affinity to the streptavidine. The radiolabeled biotinylated casein produced by the ALK1 kinase reaction is able to generate a […] signal when strepatavidine-mediated binding occurs to the scintillant-containing surface of the Flashplates due to the close proximity of the radiolabel and the scintillant. […] The signals obtained are therefore indicative of the ALK1 kinase activity. Measurement is performed in a Perkin-Elmer TopCount or Perkin-Elmer ViewLux instrument.
Enzyme: Purified human recombinant ALK1 (GST fused to ALK1 intracellular domain [His142-Gln503]) produced in-house, aliquots stored at −80° C.;
Diluted enzyme working solution: 2.5 ng/μl ALK1 (in assay buffer) freshly prepared and chilled on ice until use.
Substrate: biotinylated bovine α-casein. Unbiotinylated casein obtained from Sigma was biotinylated by standard procedures using N-hydroxysuccinimide (NHS) ester of biotin.
Substrate working solution: 0.83 μM ATP, 1.67 μM biotinylated a-casein, 7.4 nCi [γ-^33P]ATP/μl in assay buffer
Assay plates: 384-well plates, small volume, white, Greiner (# 784075)
Flashplates: Streptavidin-coated Flashplates, Perkin Elmer (384-well # SPM410A)
Assay buffer: 50 mM Tris/HCl pH 8.0, 1 mM MnCl2, 1 mM DTT, 0.01% NP40, 0.5× Complete EDTA-free
Stop solution: 33.3 μM ATP, 33.3 mM EDTA, 0.07% Triton X-100 in PBS
Saturating buffer for Flashplates: 100 μM ATP, 0.2% Triton X-100 in PBS
Sealing tape: Greiner (# 676080)
Protocol for small volume 5 μl assay (all steps are performed at 20° C., pipetted with CyBi-Well and Multidrop Micro): • 1. 50 nl or 250 nl compound in 100% DMSO • 2. addition of 3 μl substrate working solution with CyBi-Well pipettor • 3. addition of 2 μl enzyme working solution with Multidrop Micro incubation for 60 min at room temperature • 4. addition of 15 μl Stop solution with CyBi-Well pipettor • 5. transfer of 18 μl assay mixture to Flashplates** with CyBi-Well pipettor incubation for at least 3 h at room temperature or over night at 4° C. to allow binding to the streptavidine-coated Flashplates • 6. washing the Flashplates 3 times with 50 μl PBS without Ca++ and Mg++ • 7. sealing with sealing tape • 8. Measurement in Topcount (60 sec/well) **Saturation of Flashplates: The Flashplates are preincubated for at least 1 hour with 50 μl saturating buffer. Remove 18 μl from the 50 μl and transfer 18 μl of the assay mixture to the Flashplate.
Final concentrations, calculated for 5 μl reaction volume: ALK1 5 ng/well; 1 μM biotinylated α-casein; 0.5 μM ATP; 22 nCi/well [γ-^33P]ATP; 1 mM MnCl2; 1 mM DTT; 50 mM Tris-HCl; pH 8.0; 0.01% NP40; 0.5× Complete EDTA-free; 1% or 5% DMSO.
The data were normalised (enzyme reaction without inhibitor=0% inhibition, enzyme reaction in the presence of 10 mM EDTA=100% inhibition) and IC50 values were calculated by a 4 parameter fit using an in-house software.

Structure (SMILES) | IC50 [µM]
CC(=O)c1cccc(-c2cnn3ccc(Nc4ccc(C(C)C)cc4)nc23)c1 [Example 266, 1-{3-[5-(4-Isopropyl-phenylamino)-pyrazolo[1,5-a]pyrimidin-3-yl]-phenyl}-ethanone] | 1 to 10
CN(C)CCNC(=O)c1cccc(-c2cnn3ccc(Nc4ccc(Oc5ccccc5)cc4)nc23)c1 [Example 329, N-(2-Dimethylamino-ethyl)-3-[5-(4-phenoxy-phenylamino)-pyrazolo[1,5-a]pyrimidin-3-yl]-benzamide] | 1 to 10
COc1cc(-c2cnn3ccc(Nc4ccc(C)c(NS(C)(=O)=O)c4)nc23)ccc1O [Example 151] | < 1
CCN(CC)CCCNc1ccn2ncc(-c3cccc(Cl)c3)c2n1 [Example 486, N′-[3-(3-chloro-phenyl)-pyrazolo[1,5-a]pyrimidin-5-yl]-N,N-diethyl-propane-1,3-diamine] | 1 to 10
COc1ccc(Nc2ccn3ncc(-c4cc(OC)c(OC)c(OC)c4)c3n2)cn1 [Example 90, (6-Methoxy-pyridin-3-yl)-[3-(3,4,5-trimethoxy-phenyl)-pyrazolo[1,5-a]pyrimidin-5-yl]-amine] | < 1
O=C(O)c1ccc(-c2cnn3ccc(Nc4ccc(Oc5ccccc5)cc4)nc23)cc1 [Example 255, 4-[5-(4-Phenoxy-phenylamino)-pyrazolo[1,5-a]pyrimidin-3-yl]-benzoic acid] | < 1
COc1ccc(-c2cnn3ccc(NCc4cccnc4)nc23)cc1OC [Example 292, [3-(3,4-Dimethoxy-phenyl)-pyrazolo[1,5-a]pyrimidin-5-yl]-pyridin-3-ylmethyl-amine] | 1 to 10
COc1ccc(-c2cnn3ccc(NCCO)nc23)cn1 [Example 164, 2-[3-(6-Methoxy-pyridin-3-yl)-pyrazolo[1,5-a]pyrimidin-5-ylamino]-ethanol] | 1 to 10
COc1ccc(-c2cnn3ccc(Nc4cc(OC)c(OC)c(OC)c4)nc23)cc1OC [Example 462, [3-(3,4-Dimethoxy-phenyl)-pyrazolo[1,5-a]pyrimidin-5-yl]-(3,4,5-trimethoxy-phenyl)-amine] | 1 to 10
Cn1cc(-c2cnn3ccc(Nc4ccccc4)nc23)cn1 [Example 244, [3-(1-Methyl-1H-pyrazol-4-yl)-pyrazolo[1,5-a]pyrimidin-5-yl]-phenyl-amine] | < 1
c1csc(-c2cnn3ccc(NC4CCCCC4)nc23)c1 [Example 494, Cyclohexyl-(3-thiophen-2-yl-pyrazolo[1,5-a]pyrimidin-5-yl)-amine] | 1 to 10
OCCNc1ccn2ncc(-c3ccc4c(c3)OCO4)c2n1 [Example 70, 2-(3-Benzo[1,3]dioxol-5-yl-pyrazolo[1,5-a]pyrimidin-5-ylamino)-ethanol] | 1 to 10
CC(=O)Nc1cccc(-c2cnn3ccc(Nc4ccccc4)nc23)c1 [Example 283, N-[3-(5-Phenylamino-pyrazolo[1,5-a]pyrimidin-3-yl)-phenyl]-acetamide] | 1 to 10
Cn1cc(-c2cnn3ccc(Nc4ccc(O)cc4)nc23)cn1 [Example 194, 4-[3-(1-Methyl-1H-pyrazol-4-yl)-pyrazolo[1,5-a]pyrimidin-5-ylamino]-phenol] | 1 to 10
FC(F)(F)Oc1cccc(-c2cnn3ccc(Nc4ccc(N5CCOCC5)cc4)nc23)c1 [Example 129, (4-Morpholin-4-yl-phenyl)-[3-(3-trifluoromethoxy-phenyl)-pyrazolo[1,5-a]pyrimidin-5-yl]-amine] | 1 to 10
COc1ccc(-c2cnn3ccc(Nc4ccc5[nH]ccc5c4)nc23)cc1OC [Example 17, [3-(3,4-Dimethoxy-phenyl)-pyrazolo[1,5-a]pyrimidin-5-yl]-(1H-indol-5-yl)-amine] | < 1

Structure (SMILES) | IC50 [µM]
COc1ccc(-c2cnn3ccc(NC4CCC(O)CC4)nc23)cc1OC (stereo not shown) [Example 69, 4-[3-(3,4-Dimethoxy-phenyl)-pyrazolo[1,5-a]pyrimidin-5-ylamino]-cyclohexanol] | < 1
FC(F)(F)c1cccc(-c2cnn3ccc(NCc4ccncc4)nc23)c1 [Example 397, Pyridin-4-ylmethyl-[3-(3-trifluoromethyl-phenyl)-pyrazolo[1,5-a]pyrimidin-5-yl]-amine] | 1 to 10
Cn1cc(-c2cnn3ccc(NCc4cccnc4)nc23)cn1 [Example 230, [3-(1-Methyl-1H-pyrazol-4-yl)-pyrazolo[1,5-a]pyrimidin-5-yl]-pyridin-3-ylmethyl-amine] | 1 to 10
COc1cc(-c2cnn3ccc(Nc4ccc(C)c(NS(C)(=O)=O)c4)nc23)cc(OC)c1OC [Example 105, N-{2-Methyl-5-[3-(3,4,5-trimethoxy-phenyl)-pyrazolo[1,5-a]pyrimidin-5-ylamino]-phenyl}-methanesulfonamide] | < 1
COc1cc(-c2cnn3ccc(NC4CCC(O)CC4)nc23)ccc1O (stereo not shown) [Example 160, 4-[5-(4-Hydroxy-cyclohexylamino)-pyrazolo[1,5-a]pyrimidin-3-yl]-2-methoxy-phenol] | 1 to 10
COc1ccc(-c2cnn3ccc(Nc4ccc(OC)nc4)nc23)cc1 [Example 425, [3-(4-Methoxy-phenyl)-pyrazolo[1,5-a]pyrimidin-5-yl]-(6-methoxy-pyridin-3-yl)-amine] | 1 to 10
Oc1ccc(-c2cnn3ccc(Nc4ccc(N5CCOCC5)cc4)nc23)cc1 [Example 28, 4-[5-(4-Morpholin-4-yl-phenylamino)-pyrazolo[1,5-a]pyrimidin-3-yl]-phenol] | 1 to 10
COc1cncc(-c2cnn3ccc(NC4CCC(O)CC4)nc23)c1 (stereo not shown) [Example 116, 4-[3-(5-Methoxy-pyridin-3-yl)-pyrazolo[1,5-a]pyrimidin-5-ylamino]-cyclohexanol] | 1 to 10
Cc1csc(-c2cnn3ccc(NCc4cccnc4)nc23)c1 [Example 172, [3-(4-Methyl-thiophen-2-yl)-pyrazolo[1,5-a]pyrimidin-5-yl]-pyridin-3-ylmethyl-amine] | 1 to 10
COc1cc(-c2cnn3ccc(Nc4ccc(C(C)C)cc4)nc23)ccc1O [Example 277, 4-[5-(4-Isopropyl-phenylamino)-pyrazolo[1,5-a]pyrimidin-3-yl]-2-methoxy-phenol] | < 1
Fc1ccccc1-c1cnn2ccc(NCc3cccnc3)nc12 [Example 408, [3-(2-Fluoro-phenyl)-pyrazolo[1,5-a]pyrimidin-5-yl]-pyridin-3-ylmethyl-amine] | 1 to 10
COc1ccc(Nc2ccn3ncc(-c4cccc(C(C)=O)c4)c3n2)cn1 [Example 437, 1-{3-[5-(6-Methoxy-pyridin-3-ylamino)-pyrazolo[1,5-a]pyrimidin-3-yl]-phenyl}-ethanone] | 1 to 10
CC(=O)Nc1cccc(-c2cnn3ccc(Nc4cccc(Cl)c4)nc23)c1 [Example 453, N-{3-[5-(3-Chloro-phenylamino)-pyrazolo[1,5-a]pyrimidin-3-yl]-phenyl}-acetamide] | 1 to 10
Oc1ccc(-c2cnn3ccc(Nc4ccccc4)nc23)cc1 [Example 282, 4-(5-Phenylamino-pyrazolo[1,5-a]pyrimidin-3-yl)-phenol] | 1 to 10
Oc1cccc(-c2cnn3ccc(Nc4cccc(Cl)c4)nc23)c1 [Example 311, 3-[5-(3-Chloro-phenylamino)-pyrazolo[1,5-a]pyrimidin-3-yl]-phenol] | 1 to 10
